# Measured values reported in the Kinase Knowledgebase extract (Sharma et al. 2016).
# Target: PIK3CA (human) (UniProt P42336)
# Experiment: Assessment of PIK3CA Kinase Activity
# PIK3CA (human), sequence (P42336 whole entry, looked up): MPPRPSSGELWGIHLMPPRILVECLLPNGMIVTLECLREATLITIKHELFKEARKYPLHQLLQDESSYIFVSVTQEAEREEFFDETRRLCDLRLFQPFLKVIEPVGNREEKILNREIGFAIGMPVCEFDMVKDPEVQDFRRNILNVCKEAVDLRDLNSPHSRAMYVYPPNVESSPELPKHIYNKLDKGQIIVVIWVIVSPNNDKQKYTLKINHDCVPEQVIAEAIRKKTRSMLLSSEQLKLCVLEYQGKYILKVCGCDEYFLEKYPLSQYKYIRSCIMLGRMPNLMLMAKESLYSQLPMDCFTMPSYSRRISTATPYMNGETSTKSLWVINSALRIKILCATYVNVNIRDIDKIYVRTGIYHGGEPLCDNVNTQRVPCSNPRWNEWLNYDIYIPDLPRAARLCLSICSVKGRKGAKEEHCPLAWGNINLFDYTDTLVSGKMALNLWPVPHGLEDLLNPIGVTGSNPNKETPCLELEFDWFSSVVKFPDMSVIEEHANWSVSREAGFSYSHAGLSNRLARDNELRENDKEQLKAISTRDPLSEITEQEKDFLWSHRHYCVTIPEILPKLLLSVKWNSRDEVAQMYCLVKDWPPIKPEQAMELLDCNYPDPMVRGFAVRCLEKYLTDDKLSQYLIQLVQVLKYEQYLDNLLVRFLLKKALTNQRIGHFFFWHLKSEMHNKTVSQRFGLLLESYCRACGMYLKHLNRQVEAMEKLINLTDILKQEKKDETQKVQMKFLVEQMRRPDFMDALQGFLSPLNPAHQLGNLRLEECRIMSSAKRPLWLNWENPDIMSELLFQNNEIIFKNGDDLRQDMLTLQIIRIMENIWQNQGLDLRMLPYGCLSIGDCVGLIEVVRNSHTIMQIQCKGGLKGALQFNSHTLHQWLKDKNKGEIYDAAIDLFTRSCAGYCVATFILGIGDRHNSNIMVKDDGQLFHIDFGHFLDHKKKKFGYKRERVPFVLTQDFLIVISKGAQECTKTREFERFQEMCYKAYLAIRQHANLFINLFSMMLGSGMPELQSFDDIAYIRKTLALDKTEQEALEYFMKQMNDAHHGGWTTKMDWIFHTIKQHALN
row,SMILES,IC50
1,CC(=O)Nc1nc2ccc(-c3ccc(C#N)nc3)nc2s1,100 to 1000 nM
2,CC(=O)Nc1ccc(-c2ccc3nc(NC(C)=O)sc3n2)cc1,100 to 1000 nM
3,CC(=O)Nc1nc2cnc(-c3ccc(N)nc3)nc2s1,100 to 1000 nM
4,CNC(=O)c1cccc(-c2ccc3nc(NC(C)=O)sc3c2)c1,100 to 1000 nM
5,CC(=O)Nc1nc2ccc(-c3cnc(Cl)c(NS(=O)(=O)C4CC4)c3)nc2s1,100 to 1000 nM
6,CC(=O)Nc1nc2ccc(-c3cnc(Cl)c(NS(=O)(=O)c4ccccc4)c3)nc2s1,< 100 nM
7,CC(=O)Nc1nc2ccc(-c3ccc4[nH]cc(C=O)c4c3)cc2s1,< 100 nM
8,CC(=O)Nc1nc2ccc(-c3cnc4[nH]ccc4c3)nc2s1,< 100 nM
9,CNC(=O)c1ccc(-c2ccc3nc(NC(C)=O)sc3n2)cn1,< 100 nM
10,CS(=O)(=O)Nc1cc(-c2ccc3nc(NC(=O)C4CC4)sc3n2)cnc1Cl,< 100 nM
11,CC(=O)Nc1nc2ccc(-c3ccc4[nH]ccc4c3)nc2s1,100 to 1000 nM
12,CC(=O)Nc1nc2ccc(-c3ccccc3N)nc2s1,100 to 1000 nM
13,CC(=O)Nc1nc2ccc(-c3cnc(Cl)c(NS(C)(=O)=O)c3)nc2s1,< 100 nM
14,CC(=O)Nc1nc2cnc(-c3cnc(Cl)c(NS(C)(=O)=O)c3)nc2s1,< 100 nM
15,CNC(=O)c1ccc(-c2ccc3nc(NC(C)=O)sc3n2)cc1,< 100 nM
16,CC(=O)Nc1nc2ccc(-c3cnc4cc[nH]c4c3)nc2s1,< 100 nM

row,SMILES,IC50
1,CC(=O)Nc1nc2ccc(-c3ccncc3)nc2s1,100 to 1000 nM
2,CC(=O)Nc1nc2ccc(-c3ccc4[nH]ccc4c3)cc2s1,100 to 1000 nM
3,CC(=O)Nc1nc2ccc(-c3ccc(-c4nnc[nH]4)cc3)nc2s1,< 100 nM
4,CC(=O)Nc1nc2ccc(-c3cnc(N)cn3)cc2s1,< 100 nM
5,CC(=O)Nc1nc2ccc(-c3ccc4c(c3)CC(=O)N4)nc2s1,< 100 nM
6,CC(=O)Nc1nc2ccc(-c3ccc4nccn4c3)nc2s1,< 100 nM
7,CC(=O)Nc1nc2ccc(-c3ccc4[nH]ncc4c3)nc2s1,< 100 nM
8,CC(=O)Nc1nc2ccc(-c3ccc4[nH]cc(C(N)=O)c4c3)cc2s1,100 to 1000 nM
9,CC(=O)Nc1nc2ccc(-c3cnc(Cl)c(NS(C)(=O)=O)c3)cc2s1,< 100 nM
10,CC(=O)Nc1nc2cnc(-c3cnc(N)c(C(F)(F)F)c3)nc2s1,< 100 nM
11,CC(=O)Nc1ccc(-c2ccc3nc(NC(C)=O)sc3n2)cn1,100 to 1000 nM
12,CC(=O)Nc1nc2cnc(-c3cnc(Cl)c(N)c3)nc2s1,100 to 1000 nM
13,CONC(=O)c1cccc(-c2ccc3nc(NC(C)=O)sc3n2)c1,< 100 nM
14,CC(=O)Nc1nc2ccc(-c3ccc(N)cc3)cc2s1,100 to 1000 nM
15,CCS(=O)(=O)Nc1cc(-c2ccc3nc(NC(C)=O)sc3n2)cnc1Cl,< 100 nM
16,CONC(=O)c1ccc(-c2ccc3nc(NC(C)=O)sc3n2)cc1,< 100 nM
